Like-named read-outs stand apart in the source and are kept apart here. *1 amine or outer side, *2 acyl side, *3 side chain or, on linkers, in order; H or OH if unused. Where a SMILES comes first, the peptide text is derived from it. Bridges are numbered along the chain shown (N, C = ends). [ ]: non-standard residue; d: D form. The star is where a group is joined. hPhe(3-Cl-4-CF3) = N[C@@H](CCc1ccc(C(F)(F)F)c(Cl)c1)C(=O)O; NPrPhe(4-CF3) = CCCN[C@@H](Cc1ccc(C(F)(F)F)cc1)C(=O)O; X16 = CCCN([C@@H](Cc1ccc(OC)cc1)C(=O)[*:2])[*:1]; NMeGly(cPent) = CN[C@H](C(=O)O)C1CCCC1; NMeD = CN[C@@H](CC(=O)O)C(=O)O; NMeL = CN[C@@H](CC(C)C)C(=O)O; X50 = O=C(CN(CCF)[*:1])[*:2]; Morpholide = C1CN(*)CCO1; NMeA = CN[C@@H](C)C(=O)O; Ac5c = NC1(C(=O)O)CCCC1; Aze = O=C(O)[C@@H]1CCN1; Sar = CNCC(=O)O
Assays:
[1] = target: GDP-bound KRAS wild-type protein (Homo sapiens, UniProt P01116); assay: Binding to KRAS by surface plasmon resonance (SPR), Single Cycle Kinetics; details: GDP-bound KRAS wild-type protein, read-out: KRAS KD
Sequence of GDP-bound KRAS wild-type protein (P01116 whole entry): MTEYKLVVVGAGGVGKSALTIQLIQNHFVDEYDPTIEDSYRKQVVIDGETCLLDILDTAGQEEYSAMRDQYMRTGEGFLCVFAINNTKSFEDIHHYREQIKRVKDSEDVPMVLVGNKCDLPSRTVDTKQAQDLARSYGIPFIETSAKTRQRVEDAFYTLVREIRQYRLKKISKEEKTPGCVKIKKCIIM

[2] = target: GDP-bound HRAS wild-type protein (Homo sapiens, UniProt P01112); assay: Binding to HRAS by surface plasmon resonance (SPR), Single Cycle Kinetics; details: for HRAS/KRAS (ratio of KD value with respect to HRAS to KD value with respect to KRAS) / HRAS/KRAS (ratio of KD value for HRAS to KD value for KRAS): SPR, GDP-bound HRAS wild-type protein vs GDP-bound KRAS wild-type protein
Sequence of GDP-bound HRAS wild-type protein (P01112 whole entry): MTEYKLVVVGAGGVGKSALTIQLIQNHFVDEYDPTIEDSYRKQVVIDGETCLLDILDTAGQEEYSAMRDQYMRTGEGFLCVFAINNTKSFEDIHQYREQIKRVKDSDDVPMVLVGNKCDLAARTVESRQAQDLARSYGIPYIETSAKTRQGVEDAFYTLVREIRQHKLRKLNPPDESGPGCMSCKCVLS

[3] = target: GDP-bound NRAS wild-type protein (Homo sapiens, UniProt P01111); assay: Binding to NRAS by surface plasmon resonance (SPR), Single Cycle Kinetics; details: for NRAS/KRAS (ratio of KD value with respect to NRAS to KD value with respect to KRAS) / NRAS/KRAS (ratio of KD value for NRAS to KD value for KRAS): SPR, GDP-bound NRAS wild-type protein vs GDP-bound KRAS wild-type protein
Sequence of GDP-bound NRAS wild-type protein (P01111 whole entry): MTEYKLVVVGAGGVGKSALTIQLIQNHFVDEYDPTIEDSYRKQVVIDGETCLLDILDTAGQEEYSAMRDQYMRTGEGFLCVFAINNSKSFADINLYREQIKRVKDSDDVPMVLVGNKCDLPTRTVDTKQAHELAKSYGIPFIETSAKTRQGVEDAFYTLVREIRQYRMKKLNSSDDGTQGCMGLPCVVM

[4] = SPR Single Cycle Kinetics, 1:1 binding model

SMILES: CCCN1C(=O)CN(C)C(=O)CN(CCF)C(=O)[C@H]([C@@H](C)CC)NC(=O)[C@H](CC(C)C)N(C)C(=O)C[C@@H](C(=O)N2CCOCC2)N(C)C(=O)[C@H](C2CCCC2)N(C)C(=O)C2(CCCC2)NC(=O)[C@@H]2CCCN2C(=O)[C@H](CCc2ccc(C(F)(F)F)c(Cl)c2)NC(=O)CN(C)C(=O)[C@@H]1Cc1ccc(C(F)(F)F)cc1 [PP0751] ([NMeL]I[X50][Sar][NPrPhe(4-CF3)][Sar][hPhe(3-Cl-4-CF3)]P[Ac5c][NMeGly(cPent)][NMeD]-Morpholide; lactam N-11)
- Kd [1, 4]: 0.52 nM
- HRAS/KRAS (ratio of KD value with respect to HRAS to KD value with respect to KRAS) [2]: C (A compound having a KD ratio of 0.1 or more and less than 3 is denoted as C)
- NRAS/KRAS (ratio of KD value with respect to NRAS to KD value with respect to KRAS) [3]: B (a compound having 3 or more and less than 10 is denoted as B)

SMILES: CCO[C@@H]1C[C@H]2C(=O)NC3(CCC3)C(=O)N(C)[C@@H](C3CCCC3)C(=O)N(C)[C@H](C(=O)N3CCOCC3)CC(=O)N(C)C[C@@H](C)C(=O)N[C@@H]([C@@H](C)CC)C(=O)N(C)CC(=O)N(C)[C@H]3CCCCN(C3=O)[C@@H](Cc3ccc(C(F)(F)F)cc3)C(=O)N(C)CC(=O)N[C@@H](CCc3cc(F)c(C(F)(F)F)c(F)c3)C(=O)N2C1 [PP0721]
- Kd [1, 4]: 11 nM
- HRAS/KRAS (ratio of KD value with respect to HRAS to KD value with respect to KRAS) [2]: B (a compound having 3 or more and less than 10 is denoted as B)
- NRAS/KRAS (ratio of KD value with respect to NRAS to KD value with respect to KRAS) [3]: B (a compound having 3 or more and less than 10 is denoted as B)

SMILES: CC[C@H](C)[C@@H]1NC(=O)[C@H](CC(C)C)N(C)C(=O)C[C@@H](C(=O)N2CCOCC2)N(C)C(=O)[C@H](C2CCCC2)N(C)C(=O)C2(CCC2)NC(=O)[C@@H]2C[C@@H](OCC3CCCC3)CN2C(=O)[C@H](CCc2cc(F)c(C(F)(F)F)c(F)c2)NC(=O)CN(C)C(=O)[C@H](Cc2ccc(C(F)(F)F)cc2)N2CCCC[C@@H](C2=O)N(C)C(=O)CN(C)C1=O [PP1015]
- Kd ([1]; SPR, Single Cycle Kinetics): 5 nM
- HRAS/KRAS (ratio of KD value for HRAS to KD value for KRAS) [2]: C (A compound having a KD ratio of 0.1 or more and less than 3 is denoted as C)
- NRAS/KRAS (ratio of KD value for NRAS to KD value for KRAS) [3]: C (A compound having a KD ratio of 0.1 or more and less than 3 is denoted as C)

SMILES: CCCN1C(=O)[C@@H]2CCN2C(=O)[C@H](C)N(C)C(=O)[C@H]([C@@H](C)CC)NC(=O)[C@H](CC(C)C)N(C)C(=O)C[C@@H](C(=O)N2CCOCC2)N(C)C(=O)[C@H](C2CCCC2)N(C)C(=O)C2(CCCC2)NC(=O)[C@@H]2CCCN2C(=O)[C@H](CCc2ccc(C(F)(F)F)c(Cl)c2)NC(=O)CN(C)C(=O)[C@@H]1Cc1ccc(OC)cc1 [PP0134] ([NMeL]I[NMeA][Aze][X16][Sar][hPhe(3-Cl-4-CF3)]P[Ac5c][NMeGly(cPent)][NMeD]-Morpholide; lactam N-11)
- Kd [1, 4]: 0.66 nM
- HRAS/KRAS (ratio of KD value for HRAS to KD value for KRAS) [2]: B (a compound having 3 or more and less than 10 is denoted as B)
- NRAS/KRAS (ratio of KD value for NRAS to KD value for KRAS) [3]: C (A compound having a KD ratio of 0.1 or more and less than 3 is denoted as C)

SMILES: CCCN1C(=O)[C@@H]2CCN2C(=O)[C@H](C)N(C)C(=O)[C@H]([C@@H](C)CC)NC(=O)[C@H](CC(C)C)N(C)C(=O)C[C@@H](C(=O)N2CCOCC2)N(C)C(=O)[C@H](C2CCCC2)N(C)C(=O)C2(CCCC2)NC(=O)[C@@H]2C[C@@H](O)CN2C(=O)[C@H](CCc2ccc(C(F)(F)F)c(Cl)c2)NC(=O)CN(C)C(=O)[C@@H]1Cc1ccc(C(F)(F)F)cc1 [PP0239]
- Kd [1, 4]: 0.05 nM
- HRAS/KRAS (ratio of KD value for HRAS to KD value for KRAS) [2]: B (a compound having 3 or more and less than 10 is denoted as B)
- NRAS/KRAS (ratio of KD value for NRAS to KD value for KRAS) [3]: C (A compound having a KD ratio of 0.1 or more and less than 3 is denoted as C)

SMILES: CC[C@H](C)[C@@H]1NC(=O)[C@H](CC(C)C)N(C)C(=O)C[C@@H](C(=O)N2CCOCC2)N(C)C(=O)[C@H](C2CCCC2)N(C)C(=O)C2(CC2)NC(=O)[C@@H]2CCCN2C(=O)[C@H](CCc2cc(F)c(C(F)(F)F)c(F)c2)NC(=O)CN(C)C(=O)[C@H](Cc2ccc(C(F)(F)F)cc2)N2CCCC[C@@H](C2=O)N(C)C(=O)CN(C)C1=O [PP0559]
- Kd [1, 4]: 0.16 nM
- HRAS/KRAS (ratio of KD value with respect to HRAS to KD value with respect to KRAS) [2]: B (a compound having 3 or more and less than 10 is denoted as B)
- NRAS/KRAS (ratio of KD value with respect to NRAS to KD value with respect to KRAS) [3]: B (a compound having 3 or more and less than 10 is denoted as B)

SMILES: CCO[C@@H]1C[C@H]2C(=O)NC3(CC(C)(C)C3)C(=O)N(C)[C@@H](C3CCCC3)C(=O)N(C)[C@H](C(=O)N(C)CC)CC(=O)N(C)[C@@H](CC(C)C)C(=O)N[C@@H]([C@@H](C)CC)C(=O)N(C)CC(=O)N(C)[C@H]3C/C=C\CCN(C3=O)[C@@H](Cc3ccc(C(F)F)cc3)C(=O)N(C)CC(=O)N[C@@H](CCc3ccc(C(F)(F)F)c(Cl)c3)C(=O)N2C1 [PP2829]
- Kd [1, 4]: 0.095 nM
- HRAS/KRAS (ratio of KD value with respect to GDP-bound HRAS wild-type protein to KD value with respect to KRAS) ([2]; SPR KD ratio HRAS/KRAS, class symbols): A (a compound having 10 or more and less than 20 is denoted as A)
- NRAS/KRAS (ratio of KD value with respect to GDP-bound NRAS wild-type protein to KD value with respect to KRAS) ([3]; SPR KD ratio NRAS/KRAS, class symbols): A (a compound having 10 or more and less than 20 is denoted as A)
